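Step 1: Grow cells in 96-well plates. Step 2: Expose to compound for 48 hours at 5 concentrations. Step 3: Interpolate endpoints linearly; if unreached, use highest concentration. GI50: concentration for 50% inhibition of growth.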 Activity calls are given as the source filed them. Rule as the data show it: active = GI50 up to about 1.1 µM and inactive = higher.
Legend:
Experiment in all cases: NCI anticancer screen, dose series, 48 h
UACC-257 = system: UACC-257
HL-60 = system: HL-60
MDA-MB-231 = system: MDA-MB-231
SNB-19 = system: SNB-19
K562 = system: K562
SK-MEL-5 = system: SK-MEL-5
RXF 393 = system: RXF 393
DU-145 = system: DU-145
OVCAR-4 = system: OVCAR-4
T47D = system: T47D
SK-OV-3 = system: SK-OV-3
HCT-116 = system: HCT-116
SN12C = system: SN12C
SF-539 = system: SF-539
U-251 = system: U-251
SK-MEL-2 = system: SK-MEL-2
KM12 = system: KM12
COLO 205 = system: COLO 205
HOP-62 = system: HOP-62

Measured: GI50

CCc1n[nH]c(=O)n1/N=C/c1ccc(C)cc1
inactive: UACC-257 97.7 µM | HL-60 1.37 µM | MDA-MB-231 > 100 µM | SNB-19 > 100 µM | K562 > 100 µM | SK-MEL-5 > 100 µM | RXF 393 > 100 µM | DU-145 65.2 µM | OVCAR-4 58.5 µM | T47D > 100 µM | SK-OV-3 > 100 µM | HCT-116 97.9 µM | SN12C > 100 µM | SF-539 > 100 µM | U-251 > 100 µM | SK-MEL-2 > 100 µM | KM12 69.3 µM | COLO 205 > 100 µM | HOP-62 37.7 µM

NCCN1CC2CCC(CC2)C1
inactive: UACC-257 > 10 µM | HL-60 > 10 µM | MDA-MB-231 > 10 µM | SNB-19 > 10 µM | K562 > 10 µM | SK-MEL-5 > 10 µM | RXF 393 > 10 µM | DU-145 > 10 µM | OVCAR-4 > 10 µM | T47D > 10 µM | SK-OV-3 > 10 µM | HCT-116 > 10 µM | SN12C > 10 µM | SF-539 > 10 µM | U-251 > 10 µM | SK-MEL-2 > 10 µM | KM12 > 10 µM | COLO 205 > 10 µM | HOP-62 > 10 µM

N#Cc1c(-c2ccco2)c2c(n(C3OC(CO)C(O)C(O)C3O)c1=S)CCCC2 (stereo not given)
inactive: UACC-257 > 100 µM | HL-60 > 100 µM | MDA-MB-231 > 100 µM | SK-MEL-5 85.9 µM | RXF 393 > 100 µM | DU-145 > 100 µM | OVCAR-4 > 100 µM | T47D 85.5 µM | SK-OV-3 > 100 µM | HCT-116 > 100 µM | SN12C > 100 µM | SF-539 > 100 µM | SK-MEL-2 > 100 µM | KM12 > 100 µM | COLO 205 > 100 µM | HOP-62 > 100 µM

COC(=O)/C=C/[C@@H]1[C@H](C)N1S(=O)(=O)c1ccc(C)cc1 (stereo not given in full)
inactive: UACC-257 > 100 µM | HL-60 > 100 µM | MDA-MB-231 78.7 µM | SNB-19 > 100 µM | K562 > 100 µM | SK-MEL-5 > 100 µM | RXF 393 > 100 µM | DU-145 > 100 µM | OVCAR-4 > 100 µM | T47D > 100 µM | SK-OV-3 > 100 µM | HCT-116 > 100 µM | SN12C > 100 µM | SF-539 > 100 µM | U-251 > 100 µM | SK-MEL-2 29.7 µM | COLO 205 > 100 µM | HOP-62 > 100 µM

CCCOc1ccc(-c2nc(-c3ccc(/N=C/c4ccc(N(CCOS(C)(=O)=O)CCOS(C)(=O)=O)cc4C)cc3)cs2)cc1
inactive: UACC-257 38 µM | HL-60 5.05 µM | MDA-MB-231 34 µM | SNB-19 41.7 µM | K562 22.5 µM | SK-MEL-5 27 µM | RXF 393 6.08 µM | DU-145 3.16 µM | OVCAR-4 34.1 µM | T47D 26.9 µM | SK-OV-3 5.93 µM | HCT-116 29.4 µM | SN12C 16.8 µM | SF-539 12.1 µM | U-251 27.9 µM | SK-MEL-2 24.5 µM | KM12 13.6 µM | COLO 205 2.21 µM | HOP-62 8 µM

O=C1Oc2ccccc2C(=O)/C1=C/N1C(=O)/C(=C/c2ccc([N+](=O)[O-])cc2)SC1=S
inactive: UACC-257 25.8 µM | HL-60 36.1 µM | MDA-MB-231 24.9 µM | SNB-19 21.9 µM | K562 19.4 µM | SK-MEL-5 19.7 µM | RXF 393 25.7 µM | DU-145 25.7 µM | OVCAR-4 20.8 µM | T47D 5.98 µM | SK-OV-3 31.5 µM | HCT-116 19.3 µM | SN12C 20.4 µM | SF-539 21.8 µM | U-251 18.9 µM | SK-MEL-2 24 µM | KM12 19 µM | COLO 205 20.5 µM | HOP-62 18.2 µM

O=c1[nH][nH]c(=O)n1CCCCCCn1c(=O)[nH][nH]c1=O
inactive: UACC-257 > 100 µM | HL-60 > 100 µM | MDA-MB-231 > 100 µM | SNB-19 > 100 µM | K562 > 100 µM | SK-MEL-5 > 100 µM | RXF 393 > 100 µM | DU-145 > 100 µM | OVCAR-4 > 100 µM | T47D > 100 µM | SK-OV-3 > 100 µM | HCT-116 > 100 µM | SN12C > 100 µM | SF-539 > 100 µM | U-251 > 100 µM | SK-MEL-2 > 100 µM | KM12 > 100 µM | COLO 205 > 100 µM

CC(=O)N(C(=O)CC(=O)NNCc1ccccc1Cl)c1ccc(Cl)cc1
inactive: UACC-257 > 10 µM | HL-60 > 10 µM | MDA-MB-231 > 10 µM | SNB-19 > 10 µM | K562 > 10 µM | SK-MEL-5 > 10 µM | RXF 393 > 10 µM | DU-145 > 10 µM | OVCAR-4 > 10 µM | T47D 8.11 µM | SK-OV-3 > 10 µM | HCT-116 > 10 µM | SN12C > 10 µM | SF-539 > 10 µM | U-251 > 10 µM | SK-MEL-2 > 10 µM | KM12 > 10 µM | COLO 205 > 10 µM | HOP-62 > 10 µM

OC(COC(c1ccccc1)(c1ccccc1)c1ccccc1)C(O)CC1SCCS1 (stereo not given)
inactive: UACC-257 27 µM | HL-60 13.9 µM | MDA-MB-231 16.2 µM | SNB-19 21.7 µM | K562 13.5 µM | SK-MEL-5 16.7 µM | RXF 393 10.2 µM | DU-145 17.9 µM | T47D 14.1 µM | SK-OV-3 19 µM | HCT-116 16.4 µM | SN12C 17.7 µM | SF-539 18.7 µM | U-251 21.8 µM | SK-MEL-2 11.5 µM | KM12 13 µM | COLO 205 14.7 µM | HOP-62 12 µM

COC(=O)c1ccccc1C1=C([N+](=O)[O-])C(c2ccccc2)C(C#N)=C(N)O1 (stereo not given)
inactive: UACC-257 > 100 µM | HL-60 42.8 µM | MDA-MB-231 > 100 µM | SNB-19 > 100 µM | K562 33.7 µM | SK-MEL-5 > 100 µM | RXF 393 30.2 µM | DU-145 72.1 µM | T47D 37.7 µM | SK-OV-3 > 100 µM | HCT-116 > 100 µM | SN12C > 100 µM | SF-539 > 100 µM | U-251 > 100 µM | SK-MEL-2 > 100 µM | KM12 56 µM | COLO 205 50.8 µM | HOP-62 > 100 µM

CCOC(=O)c1cc2c([nH]1)C(=O)CC1=C2CCN1Cc1ccccc1
inactive: UACC-257 17.4 µM | HL-60 7.4 µM | MDA-MB-231 13.2 µM | SNB-19 17.5 µM | K562 3.8 µM | RXF 393 13.9 µM | DU-145 15.2 µM | OVCAR-4 13.6 µM | T47D 2.45 µM | SK-OV-3 19.4 µM | HCT-116 13 µM | SN12C 18.2 µM | SF-539 22.1 µM | U-251 12.5 µM | SK-MEL-2 20.5 µM | KM12 17.6 µM | COLO 205 16.8 µM
